The compounds below were run against PD-1/PD-L1 (Homo sapiens (Human), UniProt Q9NZQ7) (assay: PD-1/PD-L1 Homogeneous Time-Resolved Fluorescence (HTRF) Binding Assay). Details: recombinant human PD-1 (3 nM) and PD-L1 (10 nM), 25° C., PBS pH 7.4.
Method: Example A. PD-1/PD-L1 Homogeneous Time-Resolved Fluorescence (HTRF) Binding Assay
The assays were conducted in a standard black 384-well polystyrene plate with a final volume of 20 μL. Inhibitors were first serially diluted in DMSO and then added to the plate wells before the addition of other reaction components. The final concentration of DMSO in the assay was 1%. The assays were carried out at 25° C. in the PBS buffer (pH 7.4) with 0.05% Tween-20 and 0.1% BSA. Recombinant human PD-L1 protein (19-238) with a His-tag at the C-terminus was purchased from AcroBiosystems (PD1-H5229). Recombinant human PD-1 protein (25-167) with Fc tag at the C-terminus was also purchased from AcroBiosystems (PD1-H5257). PD-L1 and PD-1 proteins were diluted in the assay buffer and 10 μL was added to the plate well. Plates were centrifuged and proteins were preincubated with inhibitors for 40 minutes. The incubation was followed by the addition of 10 μL of HTRF detection buffer supplemented with Europium cryptate-labeled anti-human IgG (PerkinElmer-AD0212) specific for Fc and anti-His antibody conjugated to SureLight®-Allophycocyanin (APC, PerkinElmer-AD0059H). After centrifugation, the plate was incubated at 25° C. for 60 min. before reading on a PHERAstar FS plate reader (665 nm/620 nm ratio). Final concentrations in the assay were—3 nM PD1, 10 nM PD-L1, 1 nM europium anti-human IgG and 20 nM anti-His-Allophycocyanin. IC50 determination was performed by fitting the curve of percent control activity versus the log of the inhibitor concentration using the GraphPad Prism 5.0 software.

Sequence of PD-1/PD-L1 (Q9NZQ7 19-238): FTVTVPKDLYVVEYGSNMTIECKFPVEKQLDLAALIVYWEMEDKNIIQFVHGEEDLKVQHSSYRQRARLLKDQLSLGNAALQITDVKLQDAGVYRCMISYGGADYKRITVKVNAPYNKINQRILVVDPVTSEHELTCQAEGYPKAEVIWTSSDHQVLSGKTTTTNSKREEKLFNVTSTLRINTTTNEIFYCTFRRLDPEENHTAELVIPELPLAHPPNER

Question: For Cc1c(-c2nc3cc(CN4CC[C@@H](C(=O)O)C4)cc(C#N)c3o2)cccc1-c1cccc(-n2cc3c(n2)CN(C)CC3)c1Cl [Example 57, (R)-1-((2-(2′-chloro-2-methyl-3′-(6-methyl-4,5,6,7-tetrahydro-2H-pyrazolo[3,4-c]pyridin-2-yl)biphenyl-3-yl)-7-cyanobenzo[d]oxazol-5-yl)methyl)pyrrolidine-3-carboxylic acid], which IC50 is on record?
Answer: The IC50 was ≤ 10 nM.

Question: How did the IC50 turn out when Cc1c(Nc2nccc3cc(CN[C@@H](C)CO)cnc23)cccc1-c1cccc(-c2nc3cc(CN4CC[C@@](C)(C(=O)O)C4)cc(C#N)c3o2)c1C [Example 195, (R)-1-((7-cyano-2-(3′-(3-(((S)-1-hydroxypropan-2-ylamino)methyl)-1,7-naphthyridin-8-ylamino)-2,2′-dimethylbiphenyl-3-yl)benzo[d]oxazol-5-yl)methyl)-3-methylpyrrolidine-3-carboxylic acid] was run?
Answer: Its IC50 is ≤ 10 nM.

Question: For Cc1c(-c2nc3c(o2)CN(C(=O)CN2CCCC[C@H]2C(=O)O)C3)cccc1-c1cccc(-c2nc3cc(CN4CC[C@@H](O)C4)cc(C#N)c3o2)c1C [Example 133, (S)-1-(2-(2-(3′-(7-cyano-5-(((R)-3-hydroxypyrrolidin-1-yl)methyl)benzo[d]oxazol-2-yl)-2,2′-dimethyl-[1,1′-biphenyl]-3-yl)-4,6-dihydro-5H-pyrrolo[3,4-d]oxazol-5-yl)-2-oxoethyl)piperidine-2-carboxylic acid], which IC50 is on record?
Answer: The IC50 was ≤ 10 nM.

Question: Cc1c(NC(=O)c2nc3c(n2C)CCN(C)C3)cccc1-c1cccc(-c2nc3cc(CN4CCC(C(=O)O)CC4)cc(C#N)c3o2)c1C [Example 259, 1-((7-cyano-2-(3′-(1,5-dimethyl-4,5,6,7-tetrahydro-1H-imidazo[4,5-c]pyridine-2-carboxamido)-2,2′-dimethylbiphenyl-3-yl)benzo[d]oxazol-5-yl)methyl)piperidine-4-carboxylic acid] was tested. Which IC50 did it give?
Answer: The IC50 was ≤ 10 nM.

Question: Which IC50 does the source give for Cc1c(Nc2nccc3cc(CN4CC[C@H](O)C4)cnc23)cccc1-c1cccc(-c2nc3cc(CN4CC[C@@H](C(=O)O)C4)cc(Cl)c3o2)c1C [Example 16, (R)-1-((7-chloro-2-(3′-(3-(((S)-3-hydroxypyrrolidin-1-yl)methyl)-1,7-naphthyridin-8-ylamino)-2,2′-dimethylbiphenyl-3-yl)benzo[d]oxazol-5-yl)methyl)pyrrolidine-3-carboxylic acid] here?
Answer: Its IC50 is ≤ 10 nM.

Question: With Cc1c(Nc2nccc3cc(CN[C@H](C)CO)cnc23)cccc1-c1cccc(-c2nc3cc(CN4CC[C@@H](C(=O)O)C4)cc(C#N)c3o2)c1C [Example 258, (R)-1-((7-cyano-2-(3′-(3-(((R)-1-hydroxypropan-2-ylamino)methyl)-1,7-naphthyridin-8-ylamino)-2,2′-dimethylbiphenyl-3-yl)benzo[d]oxazol-5-yl)methyl)pyrrolidine-3-carboxylic acid] as the compound, how does the IC50 read?
Answer: The IC50 was ≤ 10 nM.

Question: How did the IC50 turn out when Cc1c(-c2nc3cc(CN4CC[C@@H](C(=O)O)C4)cc(C#N)c3o2)cccc1-c1cccc(-c2nc3c(o2)CN(C(=O)CN2CC[C@@H](O)C2)C3)c1Cl [Example 256, (R)-1-((2-(2′-chloro-3′-(5-(2-((R)-3-hydroxypyrrolidin-1-yl)acetyl)-5,6-dihydro-4H-pyrrolo[3,4-d]oxazol-2-yl)-2-methyl-[1,1′-biphenyl]-3-yl)-7-cyanobenzo[d]oxazol-5-yl)methyl)pyrrolidine-3-carboxylic acid] was run?
Answer: The IC50 was ≤ 10 nM.

Question: How did the IC50 turn out when Cc1c(-c2nc3cc(CN4CCCC[C@H]4C(=O)O)cc(C#N)c3o2)cccc1-c1cccc(NC(=O)c2nc3c(n2C)CCN(C)C3)c1Cl [Example 52, (S)-1-((2-(2′-chloro-3′-(1,5-dimethyl-4,5,6,7-tetrahydro-1H-imidazo[4,5-c]pyridine-2-carboxamido)-2-methylbiphenyl-3-yl)-7-cyanobenzo[d]oxazol-5-yl)methyl)piperidine-2-carboxylic acid] was run?
Answer: The IC50 was ≤ 10 nM.

Question: With Cc1c(-c2nc3cc(CN4CC5(CC(C(=O)O)C5)C4)cc(C#N)c3o2)cccc1-c1cccc(-c2nc3c(s2)CN(C(=O)CN2CC[C@H](O)C2)C3)c1C [Example 233, 2-((7-cyano-2-(3′-(5-(2-((S)-3-hydroxypyrrolidin-1-yl)acetyl)-5,6-dihydro-4H-pyrrolo[3,4-d]thiazol-2-yl)-2,2′-dimethylbiphenyl-3-yl)benzo[d]oxazol-5-yl)methyl)-2-azaspiro[3.3]heptane-6-carboxylic acid] as the compound, how does the IC50 read?
Answer: Its IC50 is ≤ 10 nM.

Question: With Cc1c(Nc2nccc3cc(CN4CCC(C(=O)O)CC4)cnc23)cccc1-c1cccc(-c2nc3cc(CNC[C@H](C)O)cc(C#N)c3o2)c1C [Example 212, (S)-1-((8-(3′-(7-cyano-5-((2-hydroxypropylamino)methyl)benzo[d]oxazol-2-yl)-2,2′-dimethylbiphenyl-3-ylamino)-1,7-naphthyridin-3-yl)methyl)piperidine-4-carboxylic acid] as the compound, how does the IC50 read?
Answer: The IC50 was ≤ 10 nM.

Question: Which IC50 does the source give for Cc1c(Nc2nccc3cc(CN4CC[C@@H](O)C4)cnc23)cccc1-c1cccc(-c2nc3cc(CN4CC[C@@H](C(=O)O)C4)cc(C#N)c3o2)c1C [Example 24, (R)-1-((7-cyano-2-(3′-(3-(((R)-3-hydroxypyrrolidin-1-yl)methyl)-1,7-naphthyridin-8-ylamino)-2,2′-dimethylbiphenyl-3-yl)benzo[d]oxazol-5-yl)methyl)pyrrolidine-3-carboxylic acid] here?
Answer: Its IC50 is ≤ 10 nM.

Question: Which IC50 does the source give for Cc1c(Nc2nccc3cc(CN4CC[C@H](O)C4)cnc23)cccc1-c1cccc(-c2nc3cc(CN4CCCC[C@H]4C(=O)O)cc(C#N)c3o2)c1C [Example 27, (S)-1-((7-cyano-2-(3′-(3-(((S)-3-hydroxypyrrolidin-1-yl)methyl)-1,7-naphthyridin-8-ylamino)-2,2′-dimethylbiphenyl-3-yl)benzo[d]oxazol-5-yl)methyl)piperidine-2-carboxylic acid] here?
Answer: Its IC50 is ≤ 10 nM.

Question: Which IC50 does the source give for Cc1c(NC(=O)c2nc3c(n2C)CCN(C)C3)cccc1-c1cccc(-c2nc3cc(CN4CC[C@H](C(=O)O)C4)cc(C#N)c3o2)c1C [Example 36, (S)-1-((7-cyano-2-(3′-(1,5-dimethyl-4,5,6,7-tetrahydro-1H-imidazo[4,5-c]pyridine-2-carboxamido)-2,2′-dimethylbiphenyl-3-yl)benzo[d]oxazol-5-yl)methyl)pyrrolidine-3-carboxylic acid] here?
Answer: Its IC50 is ≤ 10 nM.

Question: Cc1c(NC(=O)c2nc3c(n2C)CCN(C(C)C)C3)cccc1-c1cccc(-c2nc3cc(CN4CC[C@H](C(=O)O)C4)cc(C#N)c3o2)c1C [Example 38, (S)-1-((7-cyano-2-(3′-(5-isopropyl-1-methyl-4,5,6,7-tetrahydro-1H-imidazo[4,5-c]pyridine-2-carboxamido)-2,2′-dimethylbiphenyl-3-yl)benzo[d]oxazol-5-yl)methyl)pyrrolidine-3-carboxylic acid] was tested. Which IC50 did it give?
Answer: Its IC50 is ≤ 10 nM.

Question: How did the IC50 turn out when Cc1c(-c2nc3cc(CN4CC[C@@H](C(=O)O)C4)cc(C#N)c3o2)cccc1-c1cccc(NC(=O)c2nc3c(n2C)CCN(C)C3)c1Cl [Example 53, (R)-1-((2-(2′-chloro-3′-(1,5-dimethyl-4,5,6,7-tetrahydro-1H-imidazo[4,5-c]pyridine-2-carboxamido)-2-methylbiphenyl-3-yl)-7-cyanobenzo[d]oxazol-5-yl)methyl)pyrrolidine-3-carboxylic acid] was run?
Answer: The IC50 was ≤ 10 nM.

Question: How did the IC50 turn out when Cc1c(-c2nc3c(o2)CN(C(=O)CN2CCN(C)CC2)C3)cccc1-c1cccc(-c2nc3cc(CN4CC5CC4CC5C(=O)O)cc(C#N)c3o2)c1C (stereo not shown) [Example 253, 2-((7-cyano-2-(2,2′-dimethyl-3,-(5-(2-(4-methylpiperazin-1-yl)acetyl)-5,6-dihydro-4H-pyrrolo[3,4-d]oxazol-2-yl)-[1,1′-biphenyl]-3-yl)benzo[d]oxazol-5-yl)methyl)-2-azabicyclo[2.2.1]heptane-5-carboxylic acid] was run?
Answer: Its IC50 is ≤ 10 nM.

Question: How did the IC50 turn out when Cc1c(Nc2nccc3cc(CN4CC[C@@H](O)C4)cnc23)cccc1-c1cccc(-c2nc3cc(CN[C@@H]4CC[C@H](C(=O)O)C4)cc(C#N)c3o2)c1C [Example 170, (1S,3R)-3-((7-cyano-2-(3′-(3-(((R)-3-hydroxypyrrolidin-1-yl)methyl)-1,7-naphthyridin-8-ylamino)-2,2′-dimethylbiphenyl-3-yl)benzo[d]oxazol-5-yl)methylamino)cyclopentanecarboxylic acid] was run?
Answer: Its IC50 is ≤ 10 nM.

Question: Cc1c(Nc2nccc3cc(CN4CC[C@@H](O)C4)cnc23)cccc1-c1cccc(-c2nc3cc(CN4CC(C(=O)O)C4)cc(C#N)c3o2)c1C [Example 85, (R)-1-((7-cyano-2-(3′-(3-((3-hydroxypyrrolidin-1-yl)methyl)-1,7-naphthyridin-8-ylamino)-2,2′-dimethylbiphenyl-3-yl)benzo[d]oxazol-5-yl)methyl)azetidine-3-carboxylic acid] was tested. Which IC50 did it give?
Answer: The IC50 was ≤ 10 nM.

Question: For Cc1c(Nc2nccc3c(CN4CC[C@H](O)C4)ccnc23)cccc1-c1cccc(-c2nc3cc(CN4CC[C@@H](C(=O)O)C4)cc(C#N)c3o2)c1C [Example 145, (R)-1-((7-cyano-2-(3′-((4-(((S)-3-hydroxypyrrolidin-1-yl)methyl)-1,7-naphthyridin-8-yl)amino)-2,2′-dimethyl-[1,1′-biphenyl]-3-yl)benzo[d]oxazol-5-yl)methyl)pyrrolidine-3-carboxylic acid], which IC50 is on record?
Answer: The IC50 was ≤ 10 nM.
